From patent publication US10464947B2 (Incyte Corporation, priority 2013, dated 2019)
Read-outs that look alike come from different tables or passages of the source.

Key:
C-myc in KMS.12.BM cells = experiment: KMS.12.BM C-Myc ELISA Assay (Example C1); format: cell-based; details: Homo sapiens, 2 h
Experimental: KMS.12.BM C-Myc ELISA Assay
KMS.12.BM cell line (human myeloma) was purchased from JCRB (Osaka, Japan) and maintained in RPMI with 10% FBS culture medium. To measure the C-myc inhibitory activity of the compounds, the KMS.12.BM cells are plated in the RPMI culture medium at 75000 cells/well/per 200 μL into a 96-well flat bottom polystyrene tissue culture plate (Corning through VWR, NJ), in the presence or absence of a concentration range of test compounds. After 2 h, cells are pelleted and lysed with Cell Extraction Buffer (BioSource, Carlsbad, Calif.) in the presence of protease inhibitors (Life Technologies, Grand Island, N.Y. and Sigma, St Louis, Mo.). Clarified lyses are tested in a C-myc commercial ELISA (Life Technologies, Grand Island, N.Y.).

KMS.12.BM cells = experiment: KMS.12.BM Cell Viability Assay (Example B1); format: cell-based, human; details: Homo sapiens, 72 h, 3 days, Cell Titer-GLO, read-out: KMS cellular IC50
Method in brief: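 KMS.12.BM human myeloma cells, 5000 cells/well in RPMI with 10% FBS, exposed to a compound concentration range for 3 days. Viable cells measured by ATP-based Cell Titer-GLO luminescence after 10 min at room temperature.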

| IC50 (C-myc in KMS.12.BM cells) | SMILES | IC50 (KMS.12.BM cells) | IC50 (KMS.12.BM cells; KMS-12-BM) |
| --- | --- | --- | --- |
| < 1000 nM | CNC(=O)c1ncccc1C1COc2c(-c3c(C)noc3C)ccc3[nH]c(=O)n1c23 (centres unmarked) [Example 128, 3-[7-(3,5-Dimethylisoxazol-4-yl)-2-oxo-1,2,4,5-tetrahydroimidazo[1,5,4-de][1,4]benzoxazin-4-yl]-N-methylpyridine-2-carboxamide] | < 1000 nM |  |
| 1000 to 10000 nM | Cc1noc(C)c1-c1cc(CNC(=O)Cc2ccccc2)c2[nH]c(=O)n3c2c1OC[C@@H]3c1ccccn1 [Example 139, N-{[(4S)-7-(3,5-Dimethylisoxazol-4-yl)-2-oxo-4-pyridin-2-yl-1,2,4,5-tetrahydroimidazo[1,5,4-de][1,4]benzoxazin-9-yl]methyl}-2-phenylacetamide] | < 1000 nM |  |
| < 1000 nM | Cc1noc(C)c1-c1ccc2nc(NC(C)CO)n3c2c1OCC3c1ccccc1 (single isomer, unassigned) [Example 30, 2-{[7-(3,5-Dimethylisoxazol-4-yl)-4-phenyl-4,5-dihydroimidazo[1,5,4-de][1,4]benzoxazin-2-yl]amino}propan-1-ol] | < 1000 nM |  |
| < 1000 nM | CCNC(=O)c1ncccc1C1COc2c(-c3c(C)noc3C)ccc3[nH]c(=O)n1c23 (single isomer, unassigned) [Example 133, 3-[7-(3,5-dimethylisoxazol-4-yl)-2-oxo-1,2,4,5-tetrahydroimidazo[1,5,4-de][1,4]benzoxazin-4-yl]-N-ethylpyridine-2-carboxamide] | < 1000 nM |  |
| < 1000 nM | CNC(=O)c1nc2ccc(-c3c(C)noc3C)c3c2n1[C@@H](c1ccccn1)CO3 [Example 95, (4S)-7-(3,5-Dimethylisoxazol-4-yl)-N-methyl-4-pyridin-2-yl-4,5-dihydroimidazo[1,5,4-de][1,4]benzoxazine-2-carboxamide] | < 1000 nM |  |
| < 1000 nM | CNc1nc2ccc(-c3c(C)noc3C)c3c2n1C(c1ccccc1)CO3 (centres unmarked) [Example 26, 7-(3,5-Dimethylisoxazol-4-yl)-N-methyl-4-phenyl-4,5-dihydroimidazo[1,5,4-de][1,4]benzoxazin-2-amine] | < 1000 nM |  |
| < 1000 nM | Cc1noc(C)c1-c1ccc2nc(NC(C)C)n3c2c1OCC3c1ccccc1 (centres unmarked) [Example 25, 7-(3,5-Dimethylisoxazol-4-yl)-N-isopropyl-4-phenyl-4,5-dihydroimidazo[1,5,4-de][1,4]benzoxazin-2-amine] | < 1000 nM |  |
| < 1000 nM | Cc1noc(C)c1-c1cc(CNC(=O)NC(C)C)c2[nH]c(=O)n3c2c1OC[C@@H]3c1ccccn1 [Example 142, N-{[(4S)-7-(3,5-Dimethylisoxazol-4-yl)-2-oxo-4-pyridin-2-yl-1,2,4,5-tetrahydroimidazo[1,5,4-de][1,4]benzoxazin-9-yl]methyl}-N′-isopropylurea] |  | < 1000 nM |
| < 1000 nM | Cc1noc(C)c1-c1ccc2c3c1OCC(c1ccccc1)n3c(=O)n2C (centres unmarked) [Example 2, 7-(3,5-Dimethylisoxazol-4-yl)-1-methyl-4-phenyl-4,5-dihydroimidazo[1,5,4-de][1,4]benzoxazin-2(1H)-one] | < 1000 nM |  |
| < 1000 nM | Cc1noc(C)c1-c1ccc2nc(C(N)=O)n3c2c1OC[C@@H]3c1ccccn1 [Example 96, (4S)-7-(3,5-Dimethylisoxazol-4-yl)-4-pyridin-2-yl-4,5-dihydroimidazo[1,5,4-de][1,4]benzoxazine-2-carboxamide] | < 1000 nM |  |
| < 1000 nM | Cc1noc(C)c1-c1ccc2nc(C3CCNC3)n3c2c1OC[C@@H]3c1ccccn1 (single isomer, unassigned) [Example 106A] |  |  |
|  | Cc1noc(C)c1-c1ccc2nc(N3CC[C@@H](NC(=O)C(F)(F)F)C3)n3c2c1OC[C@@H]3c1ccccn1 [Example 203, N-{(3R)-1-[(4S)-7-(3,5-dimethylisoxazol-4-yl)-4-pyridin-2-yl-4,5-dihydroimidazo[1,5,4-de][1,4]benzoxazin-2-yl]pyrrolidin-3-yl}-2,2,2-trifluoroacetamide] | < 1000 nM |  |
|  | Cc1noc(C)c1-c1ccc2ncn3c2c1OCC3c1ccccc1 (centres unmarked) [Example 39, 7-(3,5-Dimethylisoxazol-4-yl)-4-phenyl-4,5-dihydroimidazo[1,5,4-de][1,4]benzoxazine] | < 1000 nM |  |
|  | Cc1noc(C)c1-c1ccc2nc(N3CCC(C#N)CC3)n3c2c1OC[C@@H]3c1ccccn1 [Example 175, 1-[(4S)-7-(3,5-dimethylisoxazol-4-yl)-4-pyridin-2-yl-4,5-dihydroimidazo[1,5,4-de][1,4]benzoxazin-2-yl]piperidine-4-carbonitrile] | < 1000 nM |  |
|  | COCC(=O)N[C@@H]1CCN(c2nc3ccc(-c4c(C)noc4C)c4c3n2[C@@H](c2ccccn2)CO4)C1 [Example 205, N-{(3R)-1-[(4S)-7-(3,5-dimethylisoxazol-4-yl)-4-pyridin-2-yl-4,5-dihydroimidazo[1,5,4-de][1,4]benzoxazin-2-yl]pyrrolidin-3-yl}-2-methoxyacetamide] | < 1000 nM |  |
|  | Cc1noc(C)c1-c1ccc2nc(N3CCN(CC(=O)N4CCCC4)CC3)n3c2c1OC[C@@H]3c1ccccn1 [Example 228, (4S)-7-(3,5-dimethylisoxazol-4-yl)-2-[4-(2-oxo-2-pyrrolidin-1-ylethyl)piperazin-1-yl]-4-pyridin-2-yl-4,5-dihydroimidazo[1,5,4-de][1,4]benzoxazine] | < 1000 nM |  |
|  | Cc1noc(C)c1-c1ccc2nc(C)n3c2c1OC[C@@H]3c1ccccn1 [Example 154, 7-(3,5-Dimethylisoxazol-4-yl)-2-methyl-4-pyridin-2-yl-4,5-dihydroimidazo[1,5,4-de][1,4]benzoxazine] | < 1000 nM |  |
|  | CCCS(=O)(=O)N[C@@H]1CCN(c2nc3ccc(-c4c(C)noc4C)c4c3n2[C@@H](c2ccccn2)CO4)C1 [Example 215, N-{(3R)-1-[(4S)-7-(3,5-dimethylisoxazol-4-yl)-4-pyridin-2-yl-4,5-dihydroimidazo[1,5,4-de][1,4]benzoxazin-2-yl]pyrrolidin-3-yl}propane-1-sulfonamide] | < 1000 nM |  |
|  | Cc1noc(C)c1-c1cc(-c2ccnc(O)c2)c2[nH]c(=O)n3c2c1OC[C@@H]3c1ccccn1 [Example 260, (4S)-7-(3,5-dimethylisoxazol-4-yl)-9-(2-hydroxypyridin-4-yl)-4-pyridin-2-yl-4,5-dihydroimidazo[1,5,4-de][1,4]benzoxazin-2(1H)-one] | 1000 to 10000 nM |  |
|  | CC(=O)NC1CN(c2nc3ccc(-c4c(C)noc4C)c4c3n2[C@@H](c2ccccn2)CO4)C1 [Example 231, N-{1-[(4S)-7-(3,5-dimethylisoxazol-4-yl)-4-pyridin-2-yl-4,5-dihydroimidazo[1,5,4-de][1,4]benzoxazin-2-yl]azetidin-3-yl}acetamide] | < 1000 nM |  |
|  | CCC(=O)NC1CCN(c2nc3ccc(-c4c(C)noc4C)c4c3n2[C@@H](c2ccccn2)CO4)CC1 [Example 243, N-{1-[(4S)-7-(3,5-dimethylisoxazol-4-yl)-4-pyridin-2-yl-4,5-dihydroimidazo[1,5,4-de][1,4]benzoxazin-2-yl]piperidin-4-yl}propanamide] | < 1000 nM |  |
|  | COCC(=O)NC1CCN(c2nc3ccc(-c4c(C)noc4C)c4c3n2[C@@H](c2ccccn2)CO4)CC1 [Example 241, N-{1-[(4S)-7-(3,5-dimethylisoxazol-4-yl)-4-pyridin-2-yl-4,5-dihydroimidazo[1,5,4-de][1,4]benzoxazin-2-yl]piperidin-4-yl}-2-methoxyacetamide] | < 1000 nM |  |
